Columns and labels:
BaF3 cells = assay: IL-3-induced c-fos promoter luciferase reporter assay; assay type: cell-based; details: IL-3 stimulation
Description: Therefore, the role of Gab2 in IL-3-induced c-fos promoter activity was assessed. For c-fos reporter assays, 1.5 μg of c-fos promoter (nt −710 to +42)-luciferase reporter were used (Hu et al., Science 268, 100-102 (1995)). STAT-driven transctivation was measured using 1.5 μg of a GAS-luciferase reporter (Jaster et al., Mol. Cell. Biol. 3364-3372 (1997)). For Elk assays, Gal4-Elk-1 (2 μg) and Gal4-luciferase (1 μg) were used (Bennett et al., Mol. Cell. Biol. 16, 1189-1202 (1996)). Cells were electroporated at 300V/800 μF, transferred to fresh RPMI/10% WEHI supernatant/10% FCS and, after three hours, were starved in RPMI/10% FCS. Twelve hours post-transfection, transfected cells (approximately 10^6/condition) were incubated in RPMI/10% FCS alone or with murine IL-3 (1 ng/ml) for two hours. Luciferase assays were performed with a kit (Promega, Madison, Wis.). Promoter activities were normalized to Renilla luciferase levels.

MCF10A cells [1] = assay: Proliferation of MCF10A cells in three-dimensional culture (Ki67 staining); assay type: cell-based, human; details: Gab2-overexpressing MCF10A, days 6 and 15 of culture; UO 15 μM on days 13 and 14 (FIG. 15F)
MCF10A cells [2] = details: treated on days 1 and 2, acini at 9 days (FIG. 15G)

| Structure (SMILES) | IL-3-induced c-fos luciferase activity (BaF3 cells) | effects of Gab2 overexpression on the proliferation of MCF10A (MCF10A cells [1]) | cooperation of Gab2 with Neu (MCF10A cells [2]) |
| --- | --- | --- | --- |
| COc1cccc(-c2cc(=O)c3ccccc3o2)c1N [PD98059] | ablated | – | – |
| N#CC(=C(/N)Sc1ccccc1N)/C(C#N)=C(/N)Sc1ccccc1N [UO126] | – | abolished | blocked |

From patent US20060265769A1, “Gab2 (p97) gene and methods of use thereof” (Beth Israel Deaconess Medical Center, Inc., priority 2000, published 2006)
